Assay [1] relates to Ishikawa. In words: Antiestrogenic activity in human Ishikawa cells assessed as inhibition of estradiol-induced induction of alkaline phosphatase activity at 20 uM after 4 days by para-nitrophenol release assay. Type of assay: functional. The settings on record: 96 h.
The target in a further assay is T1, Estrogen receptor (Homo sapiens, UniProt P03372).
T1 sequence (P03372 whole entry): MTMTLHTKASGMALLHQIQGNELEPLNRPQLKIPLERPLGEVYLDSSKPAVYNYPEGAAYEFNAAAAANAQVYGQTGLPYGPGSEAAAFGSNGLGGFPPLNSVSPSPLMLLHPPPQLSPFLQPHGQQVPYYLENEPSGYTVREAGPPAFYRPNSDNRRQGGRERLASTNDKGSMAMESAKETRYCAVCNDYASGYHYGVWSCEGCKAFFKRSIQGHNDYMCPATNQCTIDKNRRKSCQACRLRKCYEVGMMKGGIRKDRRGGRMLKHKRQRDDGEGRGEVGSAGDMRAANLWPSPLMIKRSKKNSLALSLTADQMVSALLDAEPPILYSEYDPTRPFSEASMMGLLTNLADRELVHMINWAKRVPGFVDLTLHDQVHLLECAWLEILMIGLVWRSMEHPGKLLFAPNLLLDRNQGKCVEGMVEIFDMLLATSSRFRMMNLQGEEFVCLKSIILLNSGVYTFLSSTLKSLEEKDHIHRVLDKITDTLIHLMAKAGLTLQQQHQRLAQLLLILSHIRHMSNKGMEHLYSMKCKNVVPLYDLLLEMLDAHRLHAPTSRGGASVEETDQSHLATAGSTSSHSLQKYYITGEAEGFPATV

Assay [2] relates to Ishikawa. In words: Estrogenic activity in human Ishikawa cells assessed as induction of alkaline phosphatase activity after 4 days by para-nitrophenol release assay. Type of assay: functional, cell-based. The settings on record: 96 h.
The test system of assay [3] is Ishikawa. As to the kind of experiment: Antiestrogenic activity in human Ishikawa cells assessed as inhibition of estradiol-induced induction of alkaline phosphatase activity after 4 days by para-nitrophenol release assay. The assay is classed as functional, cell-based. The following applies: 96 h.
For the next assay, the target named is Estrogen receptor beta (Homo sapiens, UniProt Q92731).
Chain of Estrogen receptor beta (Q92731 whole entry): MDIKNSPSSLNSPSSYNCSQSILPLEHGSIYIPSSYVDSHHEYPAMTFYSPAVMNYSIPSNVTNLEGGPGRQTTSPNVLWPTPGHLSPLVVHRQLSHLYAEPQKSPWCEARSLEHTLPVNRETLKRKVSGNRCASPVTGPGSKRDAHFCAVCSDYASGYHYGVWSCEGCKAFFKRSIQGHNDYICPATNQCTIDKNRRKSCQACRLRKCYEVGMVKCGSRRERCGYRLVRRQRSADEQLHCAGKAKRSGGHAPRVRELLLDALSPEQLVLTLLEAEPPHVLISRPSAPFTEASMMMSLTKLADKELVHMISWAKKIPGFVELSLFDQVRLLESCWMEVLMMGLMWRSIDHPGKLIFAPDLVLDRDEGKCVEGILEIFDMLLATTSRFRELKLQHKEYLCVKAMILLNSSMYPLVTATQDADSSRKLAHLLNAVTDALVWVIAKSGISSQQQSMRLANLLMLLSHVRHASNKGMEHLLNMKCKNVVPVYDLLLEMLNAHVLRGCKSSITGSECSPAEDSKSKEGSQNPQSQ

Description for Estrogen receptor beta: Displacement of [3H]estradiol from human recombinant ERbeta

With `O=c1cc(-c2ccc(O)cc2)oc2cc(O)cc(O)c12` [APIGENIN], in the assay on Ishikawa [1], the inhibition at 20 µM is 25%.
As for `Cc1c(O)c(C)c2occ(-c3ccc(O)cc3)c(=O)c2c1O`, the IC50 against Estrogen receptor is 10.2 µM; in the assay on Ishikawa [2], greater than 20 µM; in the assay on Ishikawa [3], 10.5 µM; on Estrogen receptor beta, 0.88 µM.
Turning to `O=c1c(-c2ccc(O)cc2)coc2cc(O)cc(O)c12` [GENISTEIN], the IC50 in the assay with Ishikawa [2] amounted to 0.51 µM.

By inhibition is commonly meant the drop in the measured response relative to a control, in per cent. By IC50 is commonly meant the concentration needed to halve the response being measured.

The record behind these values is ChEMBL document CHEMBL1150148, “Isolation and structure elucidation of an isoflavone and a sesterterpenoic acid from Henriettella fascicularis” (J Nat Prod, 2002).
